Measured values reported in patent publication US11945822B2, “Pyrazolo-triazine and/or pyrazolo-pxrimidine derivatives as selective inhibitor of cyclin dependent kinase” (QURIENT CO., LTD., priority 2018, dated 2024).

Columns and labels:
CDK7/Cyclin H/MNAT1 = target: T1, CDK7/Cyclin H/MNAT1 (Homo sapiens, UniProt P50613); assay: Enzymatic assay for CDK7 (FRET based LANCE Ultra kinase assay); assay type: biochemical; settings: for IC50: read-out: CDK7 enzymatic activity (IC50 range)
T1 construct: purchased Invitrogen PR6749B
T1 sequence (P50613 whole entry): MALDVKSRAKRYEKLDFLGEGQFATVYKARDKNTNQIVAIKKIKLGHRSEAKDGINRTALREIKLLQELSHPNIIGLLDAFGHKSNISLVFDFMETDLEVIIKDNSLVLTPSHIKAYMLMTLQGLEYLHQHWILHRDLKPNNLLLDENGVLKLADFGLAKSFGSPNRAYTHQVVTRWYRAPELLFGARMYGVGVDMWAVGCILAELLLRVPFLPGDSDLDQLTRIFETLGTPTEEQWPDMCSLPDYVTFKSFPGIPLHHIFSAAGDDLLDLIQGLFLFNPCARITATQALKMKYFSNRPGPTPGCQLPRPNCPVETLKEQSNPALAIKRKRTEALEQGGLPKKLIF
T1 sequence (P51946 whole entry partner): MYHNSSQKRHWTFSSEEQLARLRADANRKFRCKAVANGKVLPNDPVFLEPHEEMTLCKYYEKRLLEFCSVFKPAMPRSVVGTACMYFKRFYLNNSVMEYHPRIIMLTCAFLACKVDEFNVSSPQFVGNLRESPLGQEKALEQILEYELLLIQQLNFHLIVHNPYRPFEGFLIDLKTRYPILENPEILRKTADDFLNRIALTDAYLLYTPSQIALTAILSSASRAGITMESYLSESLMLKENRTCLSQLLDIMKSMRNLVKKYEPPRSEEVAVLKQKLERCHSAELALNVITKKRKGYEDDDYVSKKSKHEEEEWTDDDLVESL
T1 sequence (P51948 whole entry partner): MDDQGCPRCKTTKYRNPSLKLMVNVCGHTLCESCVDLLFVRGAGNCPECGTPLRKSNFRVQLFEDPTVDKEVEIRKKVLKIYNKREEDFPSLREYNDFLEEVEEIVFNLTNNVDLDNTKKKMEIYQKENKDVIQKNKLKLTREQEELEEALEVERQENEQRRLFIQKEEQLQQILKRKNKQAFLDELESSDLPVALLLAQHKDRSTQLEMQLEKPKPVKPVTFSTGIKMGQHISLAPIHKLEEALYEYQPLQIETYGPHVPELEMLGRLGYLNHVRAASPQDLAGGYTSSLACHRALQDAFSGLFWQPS
Procedure, shortened: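 LANCE Ultra TR-FRET kinase assay using a ULight-labeled peptide substrate and a Eu-labeled anti-phospho antibody, with ATP at its Km. Purified CDK/cyclin complex was added to compound after brief centrifugation.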

CDK5/p25 = target: T2, CDK5/p25 (Homo sapiens, UniProt Q00535); assay: Enzymatic assay for CDK5 (FRET based LANCE Ultra kinase assay); assay type: biochemical; settings: read-out: CDK5 enzymatic activity (IC50 range)
T2 construct: purchased Invitrogen PR8543B
T2 sequence (Q00535 whole entry): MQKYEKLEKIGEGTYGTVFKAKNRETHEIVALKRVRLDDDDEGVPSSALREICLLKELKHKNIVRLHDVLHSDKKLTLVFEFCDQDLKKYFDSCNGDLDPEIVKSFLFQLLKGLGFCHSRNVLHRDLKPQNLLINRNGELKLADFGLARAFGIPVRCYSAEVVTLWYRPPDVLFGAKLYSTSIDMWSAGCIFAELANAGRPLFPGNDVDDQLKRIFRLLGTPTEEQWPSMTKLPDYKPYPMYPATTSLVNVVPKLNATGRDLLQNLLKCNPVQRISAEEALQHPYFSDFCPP
T2 sequence (Q15078 99-307 partner limits assumed): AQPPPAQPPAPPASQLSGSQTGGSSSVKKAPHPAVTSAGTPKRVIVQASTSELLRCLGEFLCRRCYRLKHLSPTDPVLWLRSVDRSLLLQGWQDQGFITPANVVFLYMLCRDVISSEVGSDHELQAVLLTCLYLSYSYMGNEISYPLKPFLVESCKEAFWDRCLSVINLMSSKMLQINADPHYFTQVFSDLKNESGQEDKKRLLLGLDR
Procedure, shortened: (§1)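 TR-FRET (LANCE Ultra) kinase assay at ATP Km, ULight-MBP peptide substrate (68 nM), 8-dose 4-fold compound series in DMSO. Enzymes: […]; 60 min at 23° C., stopped with EDTA plus Eu-anti-phospho-MBP antibody, read 665/615 nm after 60 min.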

MM.1S = assay: Cellular MM.1S viability assay (CellTiter-Glo, 72 hours); assay type: cell-based; settings: Homo sapiens, MM1.S
From the text: Human T-cell acute lymphoblastic leukemia cell line, MOLT-4 (ATCC, Cat #CRL-1582), Human multiple myeloma cell line, RPMI-8226 (Invitrogen, Cat #22400-089) and MM.1S (ATCC, Cat #CRL-2974), NSCLC (Non-small cell lung cancer) cell line H460 (ATCC, Cat #HTB-177), Human colon colorectal carcinoma cell line HCT116 (ATCC, Cat #CCL-247), Human acute monocytic leukemia cell line MV4-11 (ATCC, Cat #CRL-9591), OVCAR-3 (ATCC, Cat #HTB-161) and A2780 (ECACC, Cat #93112519) were obtained from ATCC. Cells were grown in RPMI-1640 media (Invitrogen, Cat #22400-089) supplemented with 10% FBS (Invitrogen, Cat #10099141) and 1% penicillin/streptomycin (Invitrogen, Cat #15070063) and cultured at 37° C., 5% CO2 in a humidified chamber. All cell lines were routinely tested for mycoplasma.
The effect of the CDK7 inhibitor to inhibit the growth of target cancer cells was evaluated through the 72 hours time period of viability assay. Briefly, the candidate cell line ware plated in 96 well plate at the following density of cells respectively. 1×10^4 cells/well for MOLT-4, RPMI-8226, MV4-11 and MM.1S, 5×10^3 for H460, HCT116 and OVCAR-3 and IX 10^3 for A2780. After 24 hours, the cells were treated with various concentrations of the compound (ranging from 0.0015 uM to 10 uM). DMSO solvent without compound served as a control and final DMSO concentration less than 0.1%. After 72 hours of incubation at 37° C., 5% CO2 incubator, cells were analyzed for the viability using the CellTiter-Glo Luminescent Cell Viability Assay (Promega, Cat #G7570). All viability assays were performed in duplicate and Luminescence was read using an Envision (Perkin Elmer, USA). Data was analyzed using XLfit software.

CDK1/Cyclin B = target: T3, CDK1/Cyclin B (Homo sapiens, UniProt P06493); assay: Enzymatic assay for CDK1 (FRET based LANCE Ultra kinase assay); assay type: biochemical; settings: read-out: CDK1 enzymatic activity (IC50 range)
T3 construct: purchased Invitrogen PR4768C
T3 sequence (P06493 whole entry): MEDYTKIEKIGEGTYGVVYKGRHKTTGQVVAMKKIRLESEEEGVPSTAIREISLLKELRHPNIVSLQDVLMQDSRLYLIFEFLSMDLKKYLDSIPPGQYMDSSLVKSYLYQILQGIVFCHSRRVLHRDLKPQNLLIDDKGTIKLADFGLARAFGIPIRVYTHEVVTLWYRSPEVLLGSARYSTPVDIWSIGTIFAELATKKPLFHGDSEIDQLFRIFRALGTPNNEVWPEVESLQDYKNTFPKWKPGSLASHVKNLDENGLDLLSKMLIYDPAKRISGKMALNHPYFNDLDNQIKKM
T3 sequence (P14635 whole entry partner): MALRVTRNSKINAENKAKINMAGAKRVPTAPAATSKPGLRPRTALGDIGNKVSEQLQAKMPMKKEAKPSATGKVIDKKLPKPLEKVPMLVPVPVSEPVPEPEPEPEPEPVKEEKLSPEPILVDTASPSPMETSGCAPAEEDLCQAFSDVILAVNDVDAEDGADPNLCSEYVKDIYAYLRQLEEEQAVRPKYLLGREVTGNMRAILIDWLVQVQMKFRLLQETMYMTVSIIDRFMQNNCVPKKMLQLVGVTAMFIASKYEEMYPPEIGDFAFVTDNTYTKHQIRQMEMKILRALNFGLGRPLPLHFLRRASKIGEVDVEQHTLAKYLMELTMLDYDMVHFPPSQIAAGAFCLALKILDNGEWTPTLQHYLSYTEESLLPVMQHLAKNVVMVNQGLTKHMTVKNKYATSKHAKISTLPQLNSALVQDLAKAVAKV
Procedure, shortened: as §1

H460 = assay: Cellular H460 viability assay (CellTiter-Glo, 72 hours); assay type: cell-based; settings: Homo sapiens, NCI-H460
Procedure, shortened: (§2)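 72 h treatment, 37 °C, 5% CO2; DMSO ctrl, final <0.1%; CellTiter-Glo luminescence; n=2.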

CDK2/Cyclin A = target: T4, CDK2/Cyclin A (Homo sapiens, UniProt P24941); assay: Enzymatic assay for CDK2 (FRET based LANCE Ultra kinase assay); assay type: biochemical; settings: read-out: CDK2 enzymatic activity (IC50 range)
T4 construct: purchased Invitrogen PV6290
Procedure, shortened: as §1

MV4-11 = assay: Cellular MV4-11 viability assay (CellTiter-Glo, 72 hours); assay type: cell-based; settings: Homo sapiens
Procedure, shortened: as §2

HCT116 = assay: Cellular HCT116 viability assay (CellTiter-Glo, 72 hours); assay type: cell-based; settings: Homo sapiens, HCT-116
Procedure, shortened: as §2

SMILES | CDK1/CDK7: Selectivity of CDK7 inhibition over CDK1 inhibition (CDK7/Cyclin H/MNAT1) | CDK2/CDK7: Selectivity of CDK7 inhibition over CDK2 inhibition (CDK7/Cyclin H/MNAT1) | CDK5/CDK7: Selectivity of CDK7 inhibition over CDK5 inhibition (CDK7/Cyclin H/MNAT1) | IC50 (CDK7/Cyclin H/MNAT1) [nM] | IC50 (CDK5/p25) [nM] | IC50 (MM.1S) [nM] | IC50 (CDK1/Cyclin B) [nM] | IC50 (H460) [nM] | IC50 (CDK2/Cyclin A) [nM] | IC50 (MV4-11) [nM] | IC50 (HCT116) [nM]
CC(C)c1cnn2c(NCc3ccccc3-n3ccc(CO)n3)nc(N3CCC(N)CC3)nc12 [Compound 181] | B (B=less than 200 fold, but greater than 20 fold) | B (B=less than 200 fold, but greater than 20 fold) | B (B=less than 200 fold, but greater than 20 fold) | < 100 | 100 to 1000 | ≤ 1000 | 100 to 1000 | < 1000 | 100 to 1000 | < 1000 | < 1000
CNC(=O)c1ccc2nc(-c3ccccc3CNc3nc(N4CCC(N)CC4)nc4c(C(C)C)cnn34)cnc2c1 [Compound 153] | A (A=greater than 200 fold) | A (A=greater than 200 fold) | B (B=less than 200 fold, but greater than 20 fold) | < 100 | 100 to 1000 | ≤ 1000 | > 1000 | < 1000 | > 1000 | < 1000 | < 1000
CC(C)c1cnn2c(NCc3ccccc3-n3cc(N4CCNCC4)cn3)nc(N3CCC(N)CC3)nc12 [Compound 180] | B (B=less than 200 fold, but greater than 20 fold) | B (B=less than 200 fold, but greater than 20 fold) | C (C=less than 20 fold) | < 100 | < 100 | ≤ 1000 | 100 to 1000 | < 1000 | 100 to 1000 | < 1000 | < 1000
CC(C)c1cnn2c(NCc3c(Cl)cccc3-n3cc4c(n3)CCNC4=O)nc(N3CCC(N)CC3)nc12 [Compound 189] | A (A=greater than 200 fold) | A (A=greater than 200 fold) | B (B=less than 200 fold, but greater than 20 fold) | < 100 | 100 to 1000 | ≤ 1000 | > 1000 | < 1000 | > 1000 | < 1000 | < 1000
CNC(=O)c1cc2cn(-c3ccccc3CNc3nc(N4CCC(N)CC4)nc4c(C(C)C)cnn34)nc2cc1C [Compound 160] | A (A=greater than 200 fold) | B (B=less than 200 fold, but greater than 20 fold) | B (B=less than 200 fold, but greater than 20 fold) | < 100 | 100 to 1000 | ≤ 1000 | > 1000 | < 1000 | 100 to 1000 | < 1000 | < 1000
CC(C)c1cnn2c(NCc3ccccc3-n3cc(C(=O)N4CCN(C)CC4)cn3)nc(N3CCC(N)CC3)nc12 [Compound 154] | A (A=greater than 200 fold) | A (A=greater than 200 fold) | B (B=less than 200 fold, but greater than 20 fold) | < 100 | < 100 | ≤ 1000 | > 1000 | < 1000 | 100 to 1000 | < 1000 | < 1000
CC(C)c1cnn2c(NCc3c(Cl)cccc3-n3ccc(C(=O)N4CCNCC4)n3)nc(N3CCC(N)CC3)nc12 [Compound 198] | A (A=greater than 200 fold) | A (A=greater than 200 fold) | A (A=greater than 200 fold) | < 100 | 100 to 1000 | ≤ 1000 | > 1000 | 1000 to 10000 | > 1000 | < 1000 | < 1000
CC(C)c1cnn2c(N[C@@H](C)c3ccccc3-c3cc4ccccc4[nH]3)nc(N3CCC(N)CC3)nc12 [Compound 187] | A (A=greater than 200 fold) | A (A=greater than 200 fold) | A (A=greater than 200 fold) | < 100 | > 1000 | 1000 to 10000 | > 1000 | 1000 to 10000 | > 1000 | 1000 to 10000 | 
CC(C)c1cnn2c(NCc3c(O)cccc3-c3cc4ccccc4[nH]3)nc(N3CCC(N)CC3)nc12 [Compound 185] | A (A=greater than 200 fold) | A (A=greater than 200 fold) | B (B=less than 200 fold, but greater than 20 fold) | < 100 | > 1000 | 1000 to 10000 | > 1000 | 1000 to 10000 | > 1000 | 1000 to 10000 | 
COc1cccc(-c2cc3ccccc3[nH]2)c1CNc1nc(N2CCC(N)CC2)nc2c(C(C)C)cnn12 [Compound 186] | A (A=greater than 200 fold) | A (A=greater than 200 fold) | B (B=less than 200 fold, but greater than 20 fold) | < 100 | > 1000 | 1000 to 10000 | > 1000 | 1000 to 10000 | > 1000 | 1000 to 10000 | 
CC(C)c1cnn2c(N[C@H](C)c3ccccc3-c3cc4ccccc4[nH]3)nc(N3CCC(N)CC3)nc12 [Compound 188] | B (B=less than 200 fold, but greater than 20 fold) | C (C=less than 20 fold) | C (C=less than 20 fold) | 100 to 1000 | > 1000 | 1000 to 10000 | > 1000 | 1000 to 10000 | > 1000 | 1000 to 10000 | 
